Columns and labels:
Assay type in all cases: cell-based, human
Malt1 [1] = test: Quantitative real-time PCR for cytokine mRNAs in stimulated DCs; conditions: curdlan-stimulated DCs; 75 µM z-VRPR-FMK
Description: (§1) Cells, stimulation, inhibition and RNA interference. This study was performed in accordance with the ethical guidelines of the Academic Medical Center. Immature DCs (iDC, day 6 and 7) were generated as described previously. In short, human blood monocytes were isolated from buffy coats by a Ficoll and a Percoll gradient and or CD14 selection by magnetic beads. Monocytes were differentiated into immature DCs in the presence of IL-4 and GM-CSFAt day 6 the phenotype of the cultured DCs was confirmed by flow cytometric analysis. 100.000 DCs were stimulated with 10 µg/ml curdlan (Sigma), heat-killed Candida spp. (multiplicity of infection (MOI) 10) and 10 ng/ml LPS from Salmonella typhosa (Sigma) in 100-150 µl medium. Dectin-2 triggering was induced by pre-incubating DCs for 2 h at room temperature with 5 µg/ml anti-dectin-2 (MAB3114; R&D Systems), followed by cross-linking on goat-anti-mouse IgG (115-006-0710; Jackson)-coated culture plates. Cells were pre-incubated with blocking antibodies or inhibitor for 2 h with 20 µg/ml anti-dectin-1 (MAB1859; R&D Systems), 20 µg/ml anti-dectin-2 (MAB3114; R&D Systems) or 75 µM z-VRPR-FMK (Malt1 inhibitor [22]; Alexis). DCs were transfected with 25 nM siRNA (SEQ ID NO:5-8) using transfection reagens DF4 (Dharmacon), and used for experiments 72 h after transfection. 'SMARTpool' siRNAs used were: Syk (M-003176-03), CARD9 (M-004400-01), Bcl10 (M-004381-02), Malt1 (M-005936-02), c-Rel (M-004768-01) and non-targeting siRNA (D-001206-13) as a control (Dharmacon). […] PCR amplification was performed with the SYBR green method in an ABI 7900HT sequence detection system (Applied Biosystems).Silencing of expression was verified by real-time PCR and flow cytometry (not shown).
Quantitative real-time PCR. mRNA isolation, cDNA synthesis and PCR amplification with the SYBR green method in an ABI 7500 Fast PCR detection system (Applied Biosystems) were performed as described. Standard conditions according to manufacturer's instructions were used. Specific primers were designed using Primer Express 2.0 (Applied Biosystems; Supplementary Table 1). The Ct value is defined as the number of PCR cycles where the fluorescence signal exceeds the detection threshold value. For each sample, the normalized amount of target mRNA was calculated from the obtained Ct values for both target and GAPDH mRNA with Nt = 2^Ct(GAPDH)-Ct(target) The relative mRNA expression was obtained by setting Nt in curdlan-or LPS-stimulated samples at 1 within one experiment and for each donor.

Malt1 [2] = test: NF-κB DNA binding in nuclear extracts of stimulated DCs (TransAM NF-κB family kit); conditions: curdlan-stimulated DCs; 75 µM z-VRPR-FMK, 2 h pre-incubation
Description: (§2) Cells, stimulation, inhibition and RNA interference. This study was performed in accordance with the ethical guidelines of the Academic Medical Center. Immature DCs (iDC, day 6 and 7) were generated as described previously. In short, human blood monocytes were isolated from buffy coats by a Ficoll and a Percoll gradient and or CD14 selection by magnetic beads. Monocytes were differentiated into immature DCs in the presence of IL-4 and GM-CSFAt day 6 the phenotype of the cultured DCs was confirmed by flow cytometric analysis. 100.000 DCs were stimulated with 10 µg/ml curdlan (Sigma), heat-killed Candida spp. (multiplicity of infection (MOI) 10) and 10 ng/ml LPS from Salmonella typhosa (Sigma) in 100-150 µl medium. Dectin-2 triggering was induced by pre-incubating DCs for 2 h at room temperature with 5 µg/ml anti-dectin-2 (MAB3114; R&D Systems), followed by cross-linking on goat-anti-mouse IgG (115-006-0710; Jackson)-coated culture plates. Cells were pre-incubated with blocking antibodies or inhibitor for 2 h with 20 µg/ml anti-dectin-1 (MAB1859; R&D Systems), 20 µg/ml anti-dectin-2 (MAB3114; R&D Systems) or 75 µM z-VRPR-FMK (Malt1 inhibitor [22]; Alexis). […]
NF-κB DNA binding. Nuclear extracts of DCs were prepared using NucBuster protein extraction kit (Novagen) and NF-κB DNA binding determined using TransAM NF-κB family kit (Active Motif).

Malt1 [3] = test: Immunofluorescence staining of nuclear translocation of NF-κB subunits in DCs; conditions: curdlan-stimulated DCs; 75 µM z-VRPR-FMK; data not shown
Description: as §2

Malt1 [4] = test: Cytokine production by ELISA in supernatants of stimulated DCs; conditions: 75 µM z-VRPR-FMK
Description: as §1
Cytokine production. Cell culture supernatants were harvested after 28 h of stimulation and concentrations of IL-1β, IL-23, IL-6 (Invitrogen) and IL-12p70 (eBioscience) were determined by ELISA.

Malt1 [5] = test: Th17 polarization assay (primed DCs co-cultured with memory CD4+ T cells); conditions: DCs pre-incubated with z-VRPR-FMK
Description: Th17 polarization assay. Memory CD4^+ T cells were isolated as described previously. Human PBMC were isolated from heparinized human peripheral blood by density gradient centrifugation on Lymphoprep (Nycomed), and PBMC were subsequently seperated in monocytes and PBL by density gradient centrifugation on Percoll (Pharmacia). Memory CD4^+ T cells were isolated with CD45R0^+-PE (Dakopatts) and anti-PE-beads (MACS). iDCs were preincubated for 2 h with inhibitors, activated for 16 h with curdlan or heat-killed Candida spp. and subsequently co-cultured with memory CD4^+ T cells as described (20,000 T cells/2000 DCs in the presence of 10 pg/ml Staphylococcus aureus enterotoxin B (Sigma). After 5 days of co-culture, supernatants were harvested and analyzed for IL-17 production by ELISA (Biosource). Cells were further cultured in the presence of 10 U/ml IL-2 (Chiron) and resting cells were restimulated after 12 days with 100 ng/ml PMA (Sigma) and 1 µg/ml ionomycin (Sigma) for 6 h, the last 5 h in the presence of 10 µg/ml brefeldin A (Sigma), and analyzed for intracellular cytokine expression by staining with biotinylated mouse anti-IL-17 (ebio64DE; eBioscience), followed by incubation with streptavidin-PE (BD Pharmingen) and FITC-conjugated mouse anti-IFN-γ (25723.11; BD).

[6] = more strongly than dectin-1 inhibition
[7] = DCs after C. albicans stimulation
[8] = DCs stimulated with C. albicans strain CBS8781 and CBS2712
[9] = DCs stimulated with C. lusitaniae and C. nivariensis

## z-Valine-Arginine-Proline-DL-Arginine-FMK [z-VRPR-FMK]
Malt1 [1]
  IL-1β mRNA levels: markedly reduced
  IL-6 mRNA production: slightly enhanced
  IL-12p35 mRNA production: slightly enhanced
  IL-12p40 mRNA production: neither dependent on Malt1 expression nor activation
  IL-23p19 mRNA levels: markedly reduced
Malt1 [2]
  activation of c-Rel: completely abolished
  activation of the other NF-κB subunits: without affecting
Malt1 [3]
  nuclear translocation of c-Rel: specifically interferes
Malt1 [4]; [6]
  C. albicans CBS2712-induced IL-1β expression: decreased
  C. albicans CBS2712-induced IL-23 expression: decreased
Malt1 [4]; [7]
  IL-12p70 production: unaffected
  expression of IL-6: slightly upregulated
Malt1 [4]; [8]
  expression of IL-1β: requirement for Malt1 activation: required
  expression of IL-23: requirement for Malt1 activation: required
Malt1 [4]; [9]
  IL-1β production: largely dependent on Malt1 protease activity
  IL-6 expression: slightly enhanced
  IL-12p70: unaffected
  IL-23 production: largely dependent on Malt1 protease activity
Malt1 [4]; curdlan-stimulated DCs, 28 h
  IL-1β protein expression: severely reduced
  IL-6 expression: only slightly enhancing
  IL-12p70 expression: without affecting
  IL-23 protein expression: severely reduced
Malt1 [5]; C. albicans CBS8781, CBS2712, C. lusitaniae, C. nivariensis, intracellular IL-17 day 12
  ability of DCs primed by the different Candida spp. to promote IL-17 expression in CD4+ T cells: completely blocked
Malt1 [5]; IL-17 ELISA day 5, intracellular IL-17 day 12
  capacity of curdlan-primed DCs to induce IL-17 expression in CD4+ T cells: markedly reduced
